From patent US20020019365A1, “Pharmaceutical compositions of 2'-deoxy-2'-(fluoromethylene)cytidine” (priority 2000, published 2002)

Legend:
[1] = pH-rate profile for the degradation of FMdC (pH-stability profile, FIG. 1); format: physicochemical
[2] = oral administration of FMdC in a conventional tablet form, systemic uptake / bioavailability; format: in vivo; details: mammalian patient
Experimental: Notwithstanding these teachings in the art, a problem has been encountered when the compound is administered in an oral form.

pH at which FMdC is most stable ([1]; Britton-Robinson buffer (pH 2 to pH 11) and 0.1N HCl (pH 1) at 60° C.): ~9 pH | stability at a pH of about 2 or less ([1]; pH of about 2 or less, 60° C.): very unstable | patient-to-patient variability of systemic uptake [2]: high | systemic uptake of the drug (oral bioavailability) [2]: less than desirable
SMILES: Nc1ccn(C2OC(CO)[C@@H](O)/C2=C\F)c(=O)n1 (stereo partly shown) [FMdC, 2′-deoxy-2′-(fluoromethylene)cytidine]
